Measured values reported in ChEMBL document CHEMBL4000174, “Synthesis and antitumor activity of novel substituted uracil-1'(N)-acetic acid ester derivatives of 20(S)-camptothecins” (Eur J Med Chem, 2017).
Calls of active or inactive are those of the source. No cut-off for these calls is given here.

Tests used:
A549 [1] = assay: Antiproliferative activity against human A549 cells after 96 hrs by MTT assay; type: functional, cell-based; settings: A549, 96 h
Bel-7402 [2] = assay: Antiproliferative activity against human Bel7402 cells after 96 hrs by MTT assay; type: functional, cell-based; settings: Bel-7402, 96 h
BGC-823 [3] = assay: Antiproliferative activity against human BGC823 cells after 96 hrs by MTT assay; type: functional, cell-based; settings: BGC-823, 96 h
H22 [4] = assay: Antitumor activity against mouse H22 cells implanted in Kunming mouse assessed as tumor growth inhibition at 40 mg/kg, ip administered on day 1 and day 5 relative to control relative to control; type: functional; settings: read-out: TGI
H22 [5] = assay: Antitumor activity against mouse H22 cells implanted in Kunming mouse assessed as tumor growth inhibition at 60 mg/kg, ip administered twice relative to control; type: functional; settings: read-out: TGI
Mus musculus [6] = assay: Toxicity in BALB/c nude mouse xenografted with human BGC823 cells assessed as body weight at 60 mg/kg, ip administered once in a week for two weeks starting from 6 days post tumor transplantation and measured every 3 days during compound dosing for 15 days (reference value: 23.6 g); type: organism-based; settings: in vivo, 360 h
BGC-823 [7] = assay: Antitumor activity against human BGC823 cells xenografted in BALB/c nude mouse assessed as tumor growth inhibition at 30 mg/kg, ip administered once in a week for two weeks starting from 6 days post tumor transplantation measured 27 to 30 days post tumor transplantation relative to control; type: functional; settings: BGC-823, ip, read-out: TGI
BGC-823 [8] = assay: Antitumor activity against human BGC823 cells xenografted in BALB/c nude mouse assessed as tumor volume at 60 mg/kg, ip administered once in a week for two weeks starting from 6 days post tumor transplantation measured 27 to 30 days post tumor transplantation relative to control; type: functional
A549 [9] = assay: Induction of apoptosis in human A549 cells assessed as necrotic cells at 8 nM after 24 hrs by Annexin V-FITC/propidium iodide staining based flow cytometry (reference value: 7.62%); type: functional
A549 [10] = assay: Induction of apoptosis in human A549 cells assessed as early apoptotic cells at 8 nM after 24 hrs by Annexin V-FITC/propidium iodide staining based flow cytometry (reference value: 0.50%); type: functional
A549 [11] = assay: Cell cycle arrest in human A549 cells assessed as accumulation at G0/G1 phase at 8 nM after 24 hrs by propidium iodide staining based flow cytometry (reference value: 58.84%); type: functional
A549 [12] = assay: Cell cycle arrest in human A549 cells assessed as accumulation at S phase at 8 nM after 24 hrs by propidium iodide staining based flow cytometry (reference value: 32.80%); type: functional
A549 [13] = assay: Cell cycle arrest in human A549 cells assessed as accumulation at G2/M phase at 8 nM after 24 hrs by propidium iodide staining based flow cytometry (reference value: 8.36%); type: functional
A549 [14] = assay: Cell cycle arrest in human A549 cells assessed as accumulation at G0/G1 phase at 25 nM after 24 hrs by propidium iodide staining based flow cytometry (reference value: 58.84%); type: functional
A549 [15] = assay: Cell cycle arrest in human A549 cells assessed as accumulation at G2/M phase at 75 nM after 24 hrs by propidium iodide staining based flow cytometry (reference value: 8.36%); type: functional
A549 [16] = assay: Induction of apoptosis in human A549 cells assessed as viable cells at 75 nM after 24 hrs by Annexin V-FITC/propidium iodide staining based flow cytometry (reference value: 89.41%); type: functional; settings: A549, 24 h, read-out: Activity
A549 [17] = assay: Induction of apoptosis in human A549 cells assessed as early apoptotic cells at 75 nM after 24 hrs by Annexin V-FITC/propidium iodide staining based flow cytometry (reference value: 0.50%); type: functional
A549 [18] = assay: Induction of apoptosis in human A549 cells assessed as necrotic cells at 75 nM after 24 hrs by Annexin V-FITC/propidium iodide staining based flow cytometry (reference value: 7.62%); type: functional
A549 [19] = assay: Induction of apoptosis in human A549 cells assessed as early apoptotic cells at 25 nM after 24 hrs by Annexin V-FITC/propidium iodide staining based flow cytometry (reference value: 0.50%); type: functional
A549 [20] = assay: Induction of apoptosis in human A549 cells assessed as necrotic cells at 25 nM after 24 hrs by Annexin V-FITC/propidium iodide staining based flow cytometry (reference value: 7.62%); type: functional
A549 [21] = assay: Induction of apoptosis in human A549 cells assessed as cell shrinkage after 24 hrs by phase contrast microscopy; type: functional, cell-based
A549 [22] = assay: Induction of apoptosis in human A549 cells assessed as increase in Bax protein level at 8 to 75 nM by Western blot method; type: functional, cell-based
A549 [23] = assay: Induction of apoptosis in human A549 cells assessed as caspase-3 level at 8 to 75 nM by Western blot method; type: functional, cell-based
Bel-7402 [24] = assay: Antitumor activity against human Bel7402 cells xenografted in BALB/c nude mouse assessed as tumor growth inhibition at 60 mg/kg, ip administered once in a week for two weeks starting from 6 days post tumor transplantation measured 27 to 30 days post tumor transplantation relative to control; type: functional; settings: Bel-7402, ip, read-out: TGI
Mus musculus [25] = assay: Toxicity in Kunming mouse implanted with mouse H22 cells assessed as body weight at 60 mg/kg, ip administered twice (reference value: 31.1 g); type: organism-based; settings: in vivo
Mus musculus [26] = assay: Toxicity in BALB/c nude mouse xenografted with human BGC823 cells assessed as mouse survival at 60 mg/kg, ip administered once in a week for two weeks starting from 6 days post tumor transplantation; type: organism-based; settings: in vivo, 144 h
Bel-7402 [27] = assay: Antitumor activity against human Bel7402 cells xenografted in BALB/c nude mouse assessed as tumor volume at 60 mg/kg, ip administered once in a week for two weeks starting from 6 days post tumor transplantation measured 27 to 30 days post tumor transplantation relative to control; type: functional
Bel-7402 [28] = assay: Antitumor activity against human Bel7402 cells xenografted in BALB/c nude mouse assessed as tumor volume at 30 mg/kg, ip administered once in a week for two weeks starting from 6 days post tumor transplantation measured 27 to 30 days post tumor transplantation relative to control; type: functional
Mus musculus [29] = assay: Toxicity in BALB/c nude mouse xenografted with human BGC823 cells assessed as tumor volume at 30 mg/kg, ip administered once in a week for two weeks starting from 6 days post tumor transplantation and measured every 3 days during compound dosing for 15 days (reference value: […]); settings: in vivo, 360 h

`CCc1c2c(nc3ccccc13)-c1cc3c(c(=O)n1C2)COC(=O)[C@@]3(CC)OC(=O)Cn1cc(F)c(=O)[nH]c1=O` gave an IC50 (A549 [1]) of 27 nM, an IC50 (Bel-7402 [2]) of 14 nM and an IC50 (BGC-823 [3]) of 32 nM. It also gave an inhibition in vivo at 40 mg/kg (H22 [4]) of 57.5%, an inhibition in vivo at 60 mg/kg (H22 [5]) of 64.5% and an Activity (Mus musculus [6]) of 21.9 g. For the same compound, the inhibition in vivo at 30 mg/kg (BGC-823 [7]) was 89.7%, the T/C (BGC-823 [8]) was 5.54% and the Activity (A549 [9]) was 3.74%. The Activity (A549 [10]) was 3%, the Activity (A549 [11]) was 32.28% and the Activity (A549 [12]) was 36.5%. It also gave an Activity (A549 [13]) of 31.21%, an Activity (A549 [14]) of 7.09% and an Activity (A549 [15]) of 67.07%. For the same compound, the viability at 0.075 µM (A549 [16]) was 30.6%, the Activity (A549 [17]) was 23.7% and the Activity (A549 [18]) was 10.77%. The Activity (A549 [19]) was 10.07%, the Activity (A549 [20]) was 9.9% and the Activity (A549 [21]) was “Dose-dependent effect”. For the same compound, the Activity (A549 [22]) was “Active”, the Activity (A549 [23]) was “Active” and the inhibition in vivo at 60 mg/kg (Bel-7402 [24]) was 81.5%. The Activity (Mus musculus [25]) was 27.2 g, the Activity (Mus musculus [26]) was “Non-Toxic” and the T/C (Bel-7402 [27]) was 24.53%. The T/C (Bel-7402 [28]) was 41.17% and the tumor volume (Mus musculus [29]) was 334 mm³.
